According to patent US7192931B2, “Treatment of demyelinating diseases” (Neuren Pharmaceuticals Ltd., priority 2000, dated 2007):

Legend:
Format in all cases: in vivo, mouse
[1] = system: oligodendrocytes; assay: Oligodendrocyte loss by CNPase immunostaining of dorsal columns; settings: 31 for rat IgG and 26 for PBS treated control mice
Description: (§1) Frozen sections from lumbar spinal cord (10 μm) were acetone-fixed and immunostained for oligodendrocyte content with an antibody against CNPase (Sigma; diluted 1:100); for axonal damage with an antibody against non-phosphorylated neurofilament-H (SM 1-32; Stemberger Monoclonals Incorporated, Lutherville, Md., USA; diluted 1:1000), and for GluR2 and NR1 content using mouse mAbs obtained from Zymed Laboratories Inc., Carlton, San Francisco, Calif. Antibody staining was visualized with an avidin:biotinylated enzyme complex (Vector Laboratories, Burlingame, Calif., USA). Sections were viewed under a light microscope, and cells stained with the anti-CNPase and SM 1-32 antibodies were counted.
To evaluate the effects of the different treatment regimes on the loss of oligodendrocytes, a key cellular target in demyelinating diseases of the CNS, oligodendrocytes were enumerated by immunohistochemical staining of spinal cord sections and the number of oligodendrocytes within the dorsal columns of […] transverse sections were counted (FIG. 5B), and reductions in oligodendrocyte numbers were calculated and expressed as % loss of oligodendrocytes per dorsal section (FIG. 5C). […]

[2] = system: dephosphorylated neurofilament-H; assay: Axonal damage: dephosphorylated neurofilament-H in spinal cord (Western blot, immunohistochemistry); settings: for average relative densities of neurofilament-H: spinal cord homogenates, Western blot, 6.1 for rat IgG or PBS treated control mice; for effect on amount of axonal damage: spinal cord, dephosphorylated neurofilament-H
Description: as §1
PBS-perfused spinal cords were homogenized in lysis buffer (50 mM Tris pH 7.4, 100 μM EDTA, 0.25 M sucrose, 1% sodium dodecyl sulfate [SDS], 1% Nonidet P-40 [NP40], 1 μg/mL leupeptin, 1 μg/mL pepstatin A, and 100 μM phenylmethylsulfonylfluoride) at 4° C. using a motor-driven homogenizer (Virtus, Gardiner, N.Y.). Spinal cord lysates from each group of mice were pooled and centrifuged at 10000 g for 10 minutes at 4° C. to remove tissue debris. Protein concentrations of the supernatants were determined as described (Peterson, 1983), and 100 μg of protein resolved on 10% polyacrylamide SDS-gels under reducing conditions and then electrophoretically transferred to Hybond C Extra nitrocellulose membranes (Amersham Life Science, England). The membranes were blocked with 3% bovine serum albumin in TBS-T (20 mM Tris, 137 mM NaCl, pH 7.6 containing 0.1% Tween-20) for 2 hours at room temperature. Immunodetection was accomplished by incubation overnight at 4° C. with SM1-32 (1:500 dilution), anti-CNPase (1:100 dilution) antibody, or anti-GluR2 and NR1 mAbs (1:200 dilution). The membranes were washed thrice with TBS-T and incubated with horseradish peroxidase-conjugated anti-mouse IgG (Sigma) diluted 1:5000 in TBS-T. Immunoreactivity was detected by Enhanced Chemiluminescence (Amersham International plc. England) and autoradiography.

[3] = system: C57Bl/6 mice with MOG35-55 peptide-induced EAE; assay: Neuropathology scoring of spinal cord sections (pathology status scale); settings: for Pathology status scale: Oligodendrocytes** / Pathology status scale: Remyelination**: reverse scores; for Pathology status scale: Axonal damage / Pathology status scale: Demyelination / Pathology status scale: Inflammation: scored 0 to 5; for Total scores After treatment (pathology status scale): sum over the six pathology parameters after treatment; for cumulative scores for inflammation, demyelination, remyelination, apoptosis, oligodendrocyte loss, and axonal damage following treatment: text statement of Table 2 totals
Protocol: C57Bl/6 mice (8–10 week old) were injected subcutaneously in one flank with 300 μg of MOG35-55 peptide ([…]: SEQ ID NO:1) synthesized by Mimotapes Pty Ltd, Clayton, Australia and emulsified in CFA containing 500 μg of Mycobacterium tuberculosis H37Ra (DIFCO Laboratories, Detrit, USA). They also received 500 ng of pertussis toxin (List Biological Laboratories, CA, USA) in 200 μl PBS intravenously via the tail vein, followed 48 hours later by a second dose. A second injection of MOG peptide was given in the absence of pertussis toxin one week later in the opposite flank, as described previously (Kanwar et al., 2000b).
Two treatment protocols were employed, involving the treatment of early disease, versus advanced disease. For early disease, reagents were administered at day 35 (following MOG injection). Antibody was administered thrice on alternate days, whereas neuroprotectors were given daily for 6 days, where 50% of reagent was given ip and 50% iv. In the treatment of advanced disease, therapy as above was initiated at day 60, with either three or eight anti-MAdCAM-1 mAb injections, and neuroprotectors given daily for either 7 or 18 days.
Mice were perfused through the left cardiac ventricle with ice-cold PBS or glutaraldehyde, and the CNS including brain and spinal cord were prepared for frozen or epoxy sections, respectively. Thin slices were taken at all levels of the CNS including spinal cord (cervical, midthoracic, T11, T12/13, upper lumbar, L6, L7 and sacral) and sacral roots. One-μm thick epoxy sections taken from different levels of the spinal cord were stained with toluidine blue, and examined by light microscopy by an investigator blinded to the sample identity. Multiple sections from the spinal cord were scored from 0 to 5 for inflammation, demyelination, remyelination, and axonal necrosis or damage, using a previously published scoring system (Moore et al., 2000).

In the case of Gly-Pro-Glu [GPE], the “% loss of oligodendrocytes per dorsal section” value [1] is reported as 14%, the “average relative densities of neurofilament-H” value [2] is reported as 3.2 and the “effect on amount of axonal damage” value [2] is reported as “almost halved the amount of axonal damage”. The “Pathology status scale: Apoptosis” value ([3]; day 45) was 3, the “Pathology status scale: Oligodendrocytes**” value ([3]; day 45) was 3 and the “Pathology status scale: Remyelination**” value ([3]; day 45) was 2. For the same compound, the “Pathology status scale: Axonal damage” value ([3]; day 45) was 3, the “Pathology status scale: Demyelination” value ([3]; day 45) was 3 and the “Pathology status scale: Inflammation” value ([3]; day 45) was 2. For the same compound, the “Pathology status scale: Apoptosis” value ([3]; day 60) was 3, the “Pathology status scale: Oligodendrocytes**” value ([3]; day 60) was 3 and the “Pathology status scale: Remyelination**” value ([3]; day 60) was 3. For the same compound, the “Pathology status scale: Axonal damage” value ([3]; day 60) was 3, the “Pathology status scale: Demyelination” value ([3]; day 60) was 3 and the “Pathology status scale: Inflammation” value ([3]; day 60) was 3. For the same compound, the “Pathology status scale: Apoptosis” value ([3]; day 65) was 2, the “Pathology status scale: Oligodendrocytes**” value ([3]; day 65) was 2 and the “Pathology status scale: Remyelination**” value ([3]; day 65) was 2. For the same compound, the “Pathology status scale: Axonal damage” value ([3]; day 65) was 2, the “Pathology status scale: Demyelination” value ([3]; day 65) was 2 and the “Pathology status scale: Inflammation” value ([3]; day 65) was 2. For the same compound, the “Pathology status scale: Apoptosis” value ([3]; day 70) was 3, the “Pathology status scale: Oligodendrocytes**” value ([3]; day 70) was 2 and the “Pathology status scale: Remyelination**” value ([3]; day 70) was 2. For the same compound, the “Pathology status scale: Axonal damage” value ([3]; day 70) was 3, the “Pathology status scale: Demyelination” value ([3]; day 70) was 3 and the “Pathology status scale: Inflammation” value ([3]; day 70) was 2. For the same compound, the “Pathology status scale: Apoptosis” value ([3]; day 119) was 2, the “Pathology status scale: Oligodendrocytes**” value ([3]; day 119) was 2 and the “Pathology status scale: Remyelination**” value ([3]; day 119) was 1. For the same compound, the “Pathology status scale: Axonal damage” value ([3]; day 119) was 2, the “Pathology status scale: Demyelination” value ([3]; day 119) was 2 and the “Pathology status scale: Inflammation” value ([3]; day 119) was 1. For the same compound, the “Total scores After treatment (pathology status scale)” value [3] was 55 and the “cumulative scores for inflammation, demyelination, remyelination, apoptosis, oligodendrocyte loss, and axonal damage following treatment” value [3] was 55.

In the case of NS(=O)(=O)c1cccc2c1c([N+](=O)[O-])cc1nc(O)c(O)nc12 [NBQX, 2,3-dihydroxy-6-nitro-7-sulfamoylbenzo(f)quinoxaline], the “% loss of oligodendrocytes per dorsal section” value [1] is reported as 13%, the “average relative densities of neurofilament-H” value [2] is reported as 3.5 and the “effect on amount of axonal damage” value [2] is reported as “almost halved the amount of axonal damage”. For the same compound, the “Pathology status scale: Apoptosis” value ([3]; day 45) was 2, the “Pathology status scale: Oligodendrocytes**” value ([3]; day 45) was 2 and the “Pathology status scale: Remyelination**” value ([3]; day 45) was 3. The “Pathology status scale: Axonal damage” value ([3]; day 45) was 2, the “Pathology status scale: Demyelination” value ([3]; day 45) was 2 and the “Pathology status scale: Inflammation” value ([3]; day 45) was 3. The “Pathology status scale: Apoptosis” value ([3]; day 60) was 3, the “Pathology status scale: Oligodendrocytes**” value ([3]; day 60) was 3 and the “Pathology status scale: Remyelination**” value ([3]; day 60) was 2. The “Pathology status scale: Axonal damage” value ([3]; day 60) was 3, the “Pathology status scale: Demyelination” value ([3]; day 60) was 3 and the “Pathology status scale: Inflammation” value ([3]; day 60) was 3. For the same compound, the “Pathology status scale: Apoptosis” value ([3]; day 65) was 2, the “Pathology status scale: Oligodendrocytes**” value ([3]; day 65) was 2 and the “Pathology status scale: Remyelination**” value ([3]; day 65) was 2. For the same compound, the “Pathology status scale: Axonal damage” value ([3]; day 65) was 1, the “Pathology status scale: Demyelination” value ([3]; day 65) was 2 and the “Pathology status scale: Inflammation” value ([3]; day 65) was 2. The “Pathology status scale: Apoptosis” value ([3]; day 70) was 1, the “Pathology status scale: Oligodendrocytes**” value ([3]; day 70) was 1 and the “Pathology status scale: Remyelination**” value ([3]; day 70) was 2. For the same compound, the “Pathology status scale: Axonal damage” value ([3]; day 70) was 1, the “Pathology status scale: Demyelination” value ([3]; day 70) was 1 and the “Pathology status scale: Inflammation” value ([3]; day 70) was 2. For the same compound, the “Pathology status scale: Apoptosis” value ([3]; day 119) was 2, the “Pathology status scale: Oligodendrocytes**” value ([3]; day 119) was 2 and the “Pathology status scale: Remyelination**” value ([3]; day 119) was 1. For the same compound, the “Pathology status scale: Axonal damage” value ([3]; day 119) was 2, the “Pathology status scale: Demyelination” value ([3]; day 119) was 2 and the “Pathology status scale: Inflammation” value ([3]; day 119) was 1. For the same compound, the “Total scores After treatment (pathology status scale)” value [3] was 46 and the “cumulative scores for inflammation, demyelination, remyelination, apoptosis, oligodendrocyte loss, and axonal damage following treatment” value [3] was 46.
